In brackets after ≈: the same amount, converted by molar mass.
Assays:
Assay type in all cases: cell-based
[1] = system: S. pueumoniae, culture 9912; assay: MIC, standard agar dilution, S. pueumoniae culture 9912; details: Mueller Hinton agar, overnight at 35 C, read-out: SPNE 9912 MIC
Description: (§1) The in vitro MICs of test compounds are determined by a standard agar dilution method. A stock drug solution of each analog is prepared in the preferred solvent, usually DMSO:H2 O(1:3). Serial 2-fold dilutions of each sample are made using 1.0 ml aliquots of sterile distilled water. To each 1.0 ml aliquot of drug is added 9 ml of molten Mueller Hinton agar medium. The drug-supplemented agar is mixed, poured into 15×100 mm petri dishes, and allowed to solidify and dry prior to inoculation.
(§2) Vials of each of the test organisms are maintained frozen in the vapor phase of a liquid nitrogen freezer. Test cultures are grown overnight at 35 C. on the medium appropriate for the organism. Colonies are harvested with a sterile swab, and cell suspensions are prepared in Trypticase Soy broth (TSB) to equal the turbidity of a 0.5 McFarland standard. A 1:20 dilution of each suspension is made in TSB. The plates containing the drug supplemented agar are inoculated with a 0.001 ml drop of the cell suspension using a Steers replicator, yielding approximately 10^4 to 10^5 cells per spot. The plates are incubated overnight at 35 C.
(§3) Following incubation the Minimum Inhibitory Concentration (MIC μg/ml), the lowest concentration of drug that inhibits visible growth of the organism, is read and recorded.
^d) S. pueumoniae, culture 9912

[2] = system: M. catarrhalis, culture 30610; assay: MIC, standard agar dilution, M. catarrhalis culture 30610; details: Moraxella catarrhalis, CULTURE30610, Mueller Hinton agar, overnight at 35 C, read-out: MCAT 30610 MIC
Description: as §1, §2, §3
^f) M. catarrhalis, culture 30610

[3] = system: E. faecalis, culture 9217; assay: MIC, standard agar dilution, E. faecalis culture 9217; details: Enterococcus faecalis, CULTURE9217, Mueller Hinton agar, overnight at 35 C, read-out: EFAE 9217 MIC
Description: as §1, §2, §3
^c) E. faecalis, culture 9217

S. aureus, culture 9213 = assay: MIC, standard agar dilution, S. aureus culture 9213; details: Staphylococcus aureus, CULTURE9213, Mueller Hinton agar, overnight at 35 C, read-out: SAUR 9213 MIC
Description: as §1, §2, §3
^a) S. aureus, culture 9213

[4] = system: S. epidermidis, culture 12084; assay: MIC, standard agar dilution, S. epidermidis culture 12084; details: Staphylococcus epidermidis, CULTURE12084, Mueller Hinton agar, overnight at 35 C, read-out: SEPI 12084 MIC
Description: as §1, §2, §3
^b) S. epidermidis, culture 12084

[5] = system: H. influenzae, culture 30063; assay: MIC, standard agar dilution, H. influenzae culture 30063; details: Haemophilus influenzae, CULTURE30063, Mueller Hinton agar, overnight at 35 C, read-out: HINF 30063 MIC
Description: as §1, §2, §3
^e) H. influenzae, culture 30063

| SMILES | MIC [1] [µg/mL] | MIC [2] [µg/mL] | MIC [3] [µg/mL] | MIC (S. aureus, culture 9213) [µg/mL] | MIC [4] [µg/mL] | MIC [5] [µg/mL] |
| --- | --- | --- | --- | --- | --- | --- |
| CC(=S)NC[C@H]1CN(c2ccc(N3CCC(=O)N(C)CC3)c(F)c2)C(=O)O1 [Example 4, (S)-N-[[3-[3-fluoro-4-(1,2,3,4,6,7-hexahydro-4-methyl-5-oxo-1,4-diazepin-1-yl)phenyl]-2-oxo-5-oxazolidinyl]methyl]-thioacetamide] | < 0.5 | 2 (≈ 5.07 µM) | 1 (≈ 2.54 µM) | 1 (≈ 2.54 µM) | < 0.5 | 8 (≈ 20.3 µM) |
| CC(=O)NC[C@H]1CN(c2ccc(N3CCC(=O)N(C)CC3)c(F)c2)C(=O)O1 [Example 3, (S)-N-[[3-[3-fluoro-4-(1,2,3,4,6,7-hexahydro-4-methyl-5-oxo-1,4-diazepin-1-yl)phenyl]-2-oxo-5-oxazolidinyl]methyl]-acetamide] | 1 (≈ 2.64 µM) | 8 (≈ 21.1 µM) | 4 (≈ 10.6 µM) | 4 (≈ 10.6 µM) | 1 (≈ 2.64 µM) | 32 (≈ 84.6 µM) |
| CC(=O)NC[C@H]1CN(c2ccc(N3CCNC(=O)CC3)c(F)c2)C(=O)O1 [Example 1, (S)-N-[[3-[3-fluoro-4-(1,2,3,4,6,7-hexahydro-5-oxo-1,4-diazepin-1-yl)phenyl]-2-oxo-5-oxazolidinyl]methyl]acetamide] | 0.5 (≈ 1.37 µM) | 8 (≈ 22 µM) | 4 (≈ 11 µM) | 4 (≈ 11 µM) | 1 (≈ 2.74 µM) | 8 (≈ 22 µM) |
